Measured values reported in PubChem BioAssay (NCI).
Where “and” joins values, the source holds several entries; their conditions need not be identical. Equal entries are not always repeated.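 How tested: cells in 96-well plates exposed to compound for 48 hours at five concentrations. GI50 marks 50% less growth. TGI marks complete inhibition of growth.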

Assays:
Test in all cases: NCI-60 cell line screen, 48 h
[1] = test system: MDA-MB-435
[2] = test system: HT29 colon
[3] = test system: K-562 leukemia
[4] = test system: RXF 393 renal
[5] = test system: SF-268 CNS
[6] = test system: PC-3 prostate
[7] = test system: LOX IMVI melanoma
[8] = test system: KM12 colon
[9] = test system: SNB-75 CNS
[10] = test system: DU-145 prostate

## Cc1cc2c(-c3nc4ccccn4c3NC34CC5CC(CC(C5)C3)C4)c(O)c(O)cc2c(O)c1-c1c(C)cc2c(-c3nc4ccccn4c3NC34CC5CC(CC(C5)C3)C4)c(O)c(O)cc2c1O
[1]
  GI50: 0.552 µM
  TGI: > 25 µM
[2]
  GI50: 0.788 µM
  TGI: > 25 µM
[3]
  GI50: 0.152 µM
  TGI: 4.93 µM
[4]
  GI50: 0.464 µM
  TGI: 2.63 µM
[5]
  GI50: 0.239 µM
  TGI: 6.78 µM
[6]
  GI50: 0.231 µM
  TGI: 11.9 µM
[7]
  GI50: 0.412 µM
  TGI: 3.38 µM
[8]
  GI50: 0.11 µM
  TGI: 11.7 µM
[9]
  GI50: 1.04 µM
  TGI: 19.1 µM

## COc1cc(-c2nn3c(=O)n(-c4ccc(Cl)cc4)c(=O)nc3s2)cc(OC)c1OC
[2]
  GI50: > 50 µM
  TGI: > 100 µM
[3]
  GI50: 15.8 µM
  TGI: 50 µM and > 31.6 µM
[4]
  GI50: 14.7 µM
  TGI: 40.7 µM and 21.6 µM
[5]
  GI50: 33.1 µM
  TGI: > 100 µM
[7]
  GI50: > 50 µM
  TGI: > 50 µM
[8]
  GI50: > 50 µM
  TGI: > 100 µM
[9]
  GI50: 17.2 µM
  TGI: 43.1 µM and 21.1 µM

## COc1ccc(-c2nc(/C=N/Nc3cc(C)nc4ccc(Br)cc34)c(C)o2)cc1
[1]
  GI50: 1.68 µM
  TGI: 3.1 µM
[2]
  GI50: 1.62 µM
  TGI: 3.24 µM
[4]
  GI50: 1.44 µM
  TGI: 2.93 µM
[10]
  GI50: 1.75 µM
  TGI: 3.34 µM
[6]
  GI50: 1.67 µM
  TGI: 3.2 µM
[8]
  GI50: 1.8 µM
  TGI: 3.62 µM
[9]
  GI50: 1.68 µM
  TGI: 3.28 µM

## BrC(Br)([P+](c1ccccc1)(c1ccccc1)c1ccccc1)[P+](c1ccccc1)(c1ccccc1)c1ccccc1
[2]
  TGI: 31.9 µM
[4]
  TGI: 23.6 µM
[5]
  TGI: > 100 µM
[7]
  TGI: 27.2 µM
[9]
  TGI: 53.3 µM

## Cc1ccc(-c2cc(C(Cl)Cl)on2)cc1
[1]
  GI50: 62.9 µM
  TGI: > 100 µM
[2]
  GI50: 26.9 µM
  TGI: > 100 µM
[4]
  GI50: > 100 µM
  TGI: > 100 µM
[5]
  GI50: > 100 µM
  TGI: > 100 µM
[10]
  GI50: 91.4 µM
  TGI: > 100 µM
[6]
  GI50: 49.9 µM
  TGI: > 100 µM
[7]
  GI50: 41.1 µM
  TGI: > 100 µM
[8]
  GI50: 36.6 µM
  TGI: > 100 µM

## CC(C)(C)c1cc(C(=O)O)c(C(c2ccccc2)c2ccccc2C(=O)O)c(C(=O)O)c1 (stereo not given)
[2]
  TGI: > 100 µM
[3]
  TGI: > 100 µM
[4]
  TGI: > 100 µM
[5]
  TGI: > 100 µM
[7]
  TGI: > 100 µM
[8]
  TGI: > 100 µM
[9]
  TGI: 42.2 µM

## O=C(NOC(=O)c1ccc([N+](=O)[O-])cc1)c1ccc(Cl)cc1
[2]
  TGI: > 100 µM
[3]
  TGI: > 100 µM
[4]
  TGI: > 100 µM
[5]
  TGI: > 100 µM
[8]
  TGI: > 100 µM
[9]
  TGI: 54.6 µM

## COc1ccc(C2NC(=S)NC3=C2COc2ccc(F)cc23)cc1OC (stereo not given)
[1]
  GI50: 12.3 µM
  TGI: 38.5 µM
[3]
  GI50: 15.9 µM
  TGI: > 100 µM
[4]
  GI50: 18.9 µM
  TGI: 60.8 µM
[5]
  GI50: 19 µM
  TGI: > 100 µM
[10]
  GI50: 33.2 µM
  TGI: > 100 µM
[6]
  GI50: 14.2 µM
  TGI: 87.9 µM
[7]
  GI50: 13.5 µM
  TGI: 27.6 µM
[8]
  GI50: 25.9 µM
  TGI: > 100 µM

## CN1C=C(C(N)=O)C2CC(O)[C@@](NC(=O)CS(N)(=O)=O)(C(=O)O)C2C1 (stereo not given in full)
[2]
  TGI: 10.6 µM
[3]
  TGI: > 100 µM
[4]
  TGI: 4.16 µM
[5]
  TGI: 10.3 µM
[7]
  TGI: 5.58 µM
[8]
  TGI: 49.8 µM
[9]
  TGI: 7.6 µM

## COC(=O)Cc1cc(=O)oc2c1C(=O)CCC2
[2]
  TGI: > 100 µM
[3]
  TGI: > 100 µM
[4]
  TGI: > 100 µM
[5]
  TGI: > 100 µM
[7]
  TGI: > 100 µM
[8]
  TGI: > 100 µM
[9]
  TGI: > 100 µM

## O=c1c2ccccc2c(=O)c2c1sc1c(=O)c3ccc(O)cc3c(=O)c12
[1]
  GI50: 0.173 µM
  TGI: 0.326 µM
[2]
  GI50: 2.39 µM
  TGI: 6.01 µM
[3]
  GI50: 0.715 µM
  TGI: > 100 µM
[4]
  GI50: 1.63 µM
  TGI: 4.3 µM
[5]
  GI50: 1.04 µM
  TGI: 7.62 µM
[10]
  GI50: 0.174 µM
  TGI: 0.312 µM
[8]
  GI50: 2.05 µM
  TGI: 8.24 µM
[9]
  GI50: 0.183 µM
  TGI: 0.4 µM

## CN1C(=O)CC2(C)c3cc(C=O)ccc3N(C)C12 (stereo not given)
[2]
  TGI: > 100 µM
[3]
  TGI: > 100 µM
[4]
  TGI: > 100 µM
[5]
  TGI: > 100 µM
[7]
  TGI: > 100 µM
[8]
  TGI: > 100 µM
[9]
  TGI: > 100 µM

## COC(=O)C1=C(C(=O)OC)N(C(C)C)[C@H]2C(C(=O)OC)=C(C(=O)OC)N(C(C)C)[C@@H]12
[2]
  TGI: > 100 µM
[3]
  TGI: > 100 µM
[4]
  TGI: > 100 µM
[5]
  TGI: > 100 µM
[7]
  TGI: > 100 µM
[8]
  TGI: > 100 µM
[9]
  TGI: > 100 µM

## O=C1Cc2ccccc2CCc2ccccc21
[2]
  TGI: > 100 µM
[3]
  TGI: > 100 µM
[4]
  TGI: > 100 µM
[5]
  TGI: > 100 µM
[7]
  TGI: > 100 µM
[8]
  TGI: > 100 µM
[9]
  TGI: > 100 µM

## CCCC/C=C1\CCC(CN2CCCC2)C1=O (stereo not given)
[2]
  TGI: 31.5 µM
[3]
  TGI: 11.1 µM
[5]
  TGI: 29.9 µM
[7]
  TGI: 21.7 µM
[8]
  TGI: 8.28 µM
[9]
  TGI: 32.4 µM

## C(/C=C/N1CCCC1)=C\c1nc(N2CCCC2)c2ccccc2n1
[2]
  TGI: 39.4 µM
[3]
  TGI: 35.6 µM
[5]
  TGI: 41.7 µM
[7]
  TGI: 32 µM
[8]
  TGI: > 100 µM
[9]
  TGI: 31.6 µM

## CCOC(=O)c1cc(C(=O)O)c(=O)n2c1[nH]c1ccccc12
[2]
  TGI: > 100 µM
[3]
  TGI: > 100 µM
[4]
  TGI: > 100 µM
[5]
  TGI: > 100 µM
[8]
  TGI: > 100 µM
[9]
  TGI: > 100 µM

## C/C(N=NC(=S)N1CCCCCC1)=C1\C=CC=CN1O
[1]
  TGI: > 100 µM
[2]
  TGI: > 35.6 µM
[3]
  TGI: > 51.3 µM
[4]
  TGI: 79.5 µM
[5]
  TGI: > 100 µM
[10]
  TGI: > 100 µM
[7]
  TGI: > 56.3 µM
[8]
  TGI: > 100 µM
[9]
  TGI: 72.7 µM

## COc1cc(/C=C2\C(=O)Nc3ccc(Br)cc32)cc(OC)c1OC
[1]
  GI50: 2.02 µM
  TGI: 7.19 µM
[2]
  GI50: 3.82 µM
  TGI: > 100 µM
[3]
  GI50: 1.11 µM
  TGI: > 100 µM
[5]
  GI50: 36.9 µM
  TGI: > 100 µM
[10]
  GI50: 18.7 µM
  TGI: > 100 µM
[6]
  GI50: 3.92 µM
  TGI: > 100 µM
[7]
  GI50: 10.6 µM
  TGI: > 100 µM
[8]
  GI50: 3.33 µM
  TGI: > 92.4 µM
[9]
  GI50: 4.01 µM
  TGI: 14.5 µM

## COc1cc2c3c(c1OC)/C(=N/OS(=O)(=O)c1ccc(C)cc1)CC3N(S(=O)(=O)c1ccc(C)cc1)CC2 (stereo not given)
[2]
  TGI: > 100 µM
[3]
  TGI: > 100 µM
[4]
  TGI: > 100 µM
[5]
  TGI: > 100 µM
[7]
  TGI: > 100 µM
[8]
  TGI: > 100 µM
[9]
  TGI: > 100 µM

## c1cc2ccc1C1NCCCN1CCN1CCCNC1c1ccc(cc1)C1NCCCN1CCN1CCCNC21 (stereo not given)
[2]
  TGI: > 100 µM
[3]
  TGI: > 100 µM
[5]
  TGI: > 100 µM
[7]
  TGI: > 100 µM
[8]
  TGI: > 100 µM
[9]
  TGI: > 100 µM
